This passage reports Ki and Selectivity ratio results from ChEMBL document CHEMBL1133860, “Synthesis and biological evaluation of a series of novel N- or O-fluoroalkyl derivatives of tropane: potential positron emission tomography (PET) imaging agents for the dopamine transporter” (Bioorg Med Chem Lett, 2001).

For test [1], the target named is Norepinephrine transporter (Rattus norvegicus, UniProt Q9WTR4). As to the kind of experiment: Ability to displace [3H]- nisoxetin from Norepinephrine transporter in rat cerebral cortical homogenate.
For test [2], the target named is Sodium-dependent dopamine transporter (Rattus norvegicus, UniProt P23977). As to the kind of experiment: Ability to displace [3H]- beta-CIT from Dopamine transporter in rat striatal homogenate.
In test [3] the target is Sodium-dependent serotonin transporter (Rattus norvegicus, UniProt P31652). As to the kind of experiment: Ability to displace [3H]- paroxetine from Serotonin transporter in rat cerebral cortical homogenate.
Test [4] deals with Monoamine transporters; serotonin & dopamine. The experiment in a line: Selectivity for DAT determined as ratio of binding affinity for SERT to that for DAT. The test is classed as protein assay.
For test [5], the system named is Monoamine transporters; Norepinephrine & dopamine. The experiment in a line: Selectivity for DAT determined as ratio of binding affinity for NET to that for DAT. The test is classed as protein assay.

Structures are written as SMILES.

Norepinephrine transporter, sequence (Q9WTR4 whole entry): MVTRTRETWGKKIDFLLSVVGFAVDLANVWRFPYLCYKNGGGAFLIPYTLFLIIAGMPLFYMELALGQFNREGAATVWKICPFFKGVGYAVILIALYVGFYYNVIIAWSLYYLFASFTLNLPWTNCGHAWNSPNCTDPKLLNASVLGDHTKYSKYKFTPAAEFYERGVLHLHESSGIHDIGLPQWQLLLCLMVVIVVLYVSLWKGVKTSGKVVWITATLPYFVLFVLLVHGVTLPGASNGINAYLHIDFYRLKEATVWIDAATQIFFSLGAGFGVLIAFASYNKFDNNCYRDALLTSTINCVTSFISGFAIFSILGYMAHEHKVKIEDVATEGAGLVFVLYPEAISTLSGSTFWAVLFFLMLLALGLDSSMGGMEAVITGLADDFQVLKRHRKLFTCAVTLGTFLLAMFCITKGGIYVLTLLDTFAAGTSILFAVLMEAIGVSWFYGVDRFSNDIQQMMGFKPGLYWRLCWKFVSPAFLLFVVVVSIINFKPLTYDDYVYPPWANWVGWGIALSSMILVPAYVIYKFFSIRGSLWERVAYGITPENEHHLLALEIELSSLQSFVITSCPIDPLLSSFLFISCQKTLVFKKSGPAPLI
Sodium-dependent dopamine transporter, sequence (P23977 whole entry): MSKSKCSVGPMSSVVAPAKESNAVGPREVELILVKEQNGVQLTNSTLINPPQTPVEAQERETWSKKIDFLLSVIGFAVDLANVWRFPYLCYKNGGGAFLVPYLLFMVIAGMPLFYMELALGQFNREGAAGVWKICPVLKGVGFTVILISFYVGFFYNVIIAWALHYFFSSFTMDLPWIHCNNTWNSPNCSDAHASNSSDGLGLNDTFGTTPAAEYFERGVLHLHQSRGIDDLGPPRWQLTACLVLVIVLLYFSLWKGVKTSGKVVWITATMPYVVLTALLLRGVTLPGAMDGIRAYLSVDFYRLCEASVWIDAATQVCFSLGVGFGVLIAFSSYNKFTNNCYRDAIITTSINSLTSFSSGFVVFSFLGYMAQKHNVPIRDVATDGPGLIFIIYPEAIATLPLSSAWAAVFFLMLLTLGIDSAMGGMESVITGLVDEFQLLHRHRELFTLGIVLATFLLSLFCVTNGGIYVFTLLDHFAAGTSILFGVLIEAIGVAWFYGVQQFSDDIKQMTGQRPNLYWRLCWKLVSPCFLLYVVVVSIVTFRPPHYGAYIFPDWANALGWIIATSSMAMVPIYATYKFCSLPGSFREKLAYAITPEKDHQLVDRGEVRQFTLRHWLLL
Sodium-dependent serotonin transporter, sequence (P31652 whole entry): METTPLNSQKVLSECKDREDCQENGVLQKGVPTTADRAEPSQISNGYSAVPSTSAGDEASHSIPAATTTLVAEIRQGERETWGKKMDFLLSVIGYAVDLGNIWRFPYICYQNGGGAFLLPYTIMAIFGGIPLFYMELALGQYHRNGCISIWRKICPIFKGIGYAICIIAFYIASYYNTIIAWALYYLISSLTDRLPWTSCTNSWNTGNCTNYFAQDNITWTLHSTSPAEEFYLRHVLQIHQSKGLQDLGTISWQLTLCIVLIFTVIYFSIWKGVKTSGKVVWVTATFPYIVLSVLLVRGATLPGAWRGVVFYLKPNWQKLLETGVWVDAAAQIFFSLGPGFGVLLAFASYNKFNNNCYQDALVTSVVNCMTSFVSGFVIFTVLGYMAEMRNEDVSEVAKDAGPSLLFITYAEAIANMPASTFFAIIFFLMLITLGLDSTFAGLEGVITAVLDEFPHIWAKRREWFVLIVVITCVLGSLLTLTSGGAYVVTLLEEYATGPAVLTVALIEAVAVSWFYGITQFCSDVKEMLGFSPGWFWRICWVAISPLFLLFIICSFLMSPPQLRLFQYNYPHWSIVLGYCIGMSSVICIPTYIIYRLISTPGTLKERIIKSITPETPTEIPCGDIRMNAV

Take `COC(=O)C1C(c2ccc(C)cc2)CC2CCC1N2CCCF` (configuration not stated): the Ki came out at 1210 nM in test [1], 37.6 nM in test [2] and 1310 nM in test [3]. For the same molecule, the Selectivity ratio came out at 34.9 in test [4] and 32.1 in test [5].

For the molecule `O=C(OCCF)C1C(c2ccc(I)cc2)CC2CCC1N2CCCF` (configuration not stated), the Ki in test [1] was found to be 723 nM; in test [2], 8.71 nM; in test [3], 13.3 nM. Further, the results for the Selectivity ratio in test [4] and in test [5] were 1.5 and 83, respectively.

On to `COC(=O)[C@@H]1C2CC[C@H](C[C@@H]1c1ccc(I)cc1)N2C`, for which the affinity in test [2] corresponds to a Ki of 1.33 nM. The Selectivity ratio in test [4] amounted to 0.4; in test [5], 2.1.

As for `Cc1ccc(C2CC3CCC(C2C(=O)OCCCF)N3C)cc1` (configuration not stated), the results for the Ki in test [1], in test [2] and in test [3] were 260 nM, 7.17 nM and 325 nM, respectively. Besides, the Selectivity ratio came to 45.3 in test [4] and 36.3 in test [5].

For the molecule `CN1C2CCC1C(C(=O)OCCCF)C(c1ccc(I)cc1)C2` (configuration not stated), the inhibition constant Ki turned out to be 173 nM in test [1], 1.54 nM in test [2] and 1.65 nM in test [3]. In addition, the Selectivity ratio in test [4] worked out at 1.1; in test [5], 112.

Consider `COC(=O)C1C2CCC(CC1c1ccc(I)cc1)N2` (configuration not stated), for which the Ki was determined as 1.85 nM in test [1], 0.64 nM in test [2] and 0.06 nM in test [3]. Further, the Selectivity ratio in test [4] is 0.1; in test [5], 2.9.

Consider `CN1C2CCC1C(C(=O)OCCF)C(c1ccc(I)cc1)C2` (configuration not stated), for which the inhibitory constant (Ki) turned out to be 173 nM in test [1], 0.93 nM in test [2] and 1.65 nM in test [3]. Further, the Selectivity ratio in test [4] is 1.1; in test [5], 112.

Take `COC(=O)C1C(c2ccc(C)cc2)CC2CCC1N2CCF` (configuration not stated): the inhibitory constant (Ki) in test [1] came out at 268 nM; in test [2], 32.1 nM; in test [3], 375 nM. Moreover, the Selectivity ratio came to 11.7 in test [4] and 8.4 in test [5].

Take `COC(=O)C1C(c2ccc(Br)cc2)CC2CCC1N2CCCF` (configuration not stated): the Ki in test [1] is 196 nM; in test [2], 3.33 nM; in test [3] it was 36.4 nM. In addition, the Selectivity ratio in test [4] turned out to be 10.9; in test [5], 58.9.

Regarding `COC(=O)C1C(c2ccc(I)cc2)CC2CCC1N2CCCF` (configuration not stated), the values for the Ki in test [2] and in test [3] were 8.29 nM and 1.68 nM, respectively. In addition, the Selectivity ratio in test [4] stood at 0.2; in test [5], 7.6.
